The test relates to A/Georgia/20/2006 (H1N1) H275Y. It counts as cell-based, influenza A virus.

Several values for one entry are separate records, joined by “and”; a condition that tells them apart may be missing. Equal values may be shown once.

What is called EC90 is the point of the concentration-response curve where the effect stands at 90%. A high value points to weaker potency.

As for `C[n+]1ccc(C(=O)NCc2ccccc2)cc1` [enisamium, N-methyl-4-benzylcarbamidopyridinium], the EC90 was 144 µM and 286 µM.

(Values after publication PMC6961345 (Antiviral Chemistry & Chemotherapy, 2018).)
